Assay results as given in PMC2877875, “Characterisation of the bifunctional dihydrofolate synthase–folylpolyglutamate synthase from Plasmodium falciparum; a potential novel target for antimalarial antifolate inhibition” (Molecular and Biochemical Parasitology, 2010).
“Also recorded” adds a separate entry of the source. Read-outs that look alike come from different tables or passages of the source.

Key:
[1] = target: PfDHFS–FPGS (DHFS activity) (Plasmodium falciparum, UniProt Q8IE69); test: DHFS assay of recombinant PfDHFS–FPGS ([14C]glutamate incorporation); type: biochemical; conditions: for Km: low co-substrate concentrations (ATP or glutamate ≤25 μM), Michaelis–Menten fit, read-out: apparent Km, DHFS activity
Method: (§1) A standard reaction mix based on those established for bacterial and eukaryotic DHFS/FPGS assays was adopted [[28,36,37]] and contained 10 mM MgCl2, 5 mM DTT, 200 mM KCl, 100 mM Tris, 50 mM glycine, 1 mg/ml BSA, 45 μg/ml DHFS–FPGS protein (0.72 μM), pH 10. […] The enzyme reactions were carried out at 37 °C for 60 min in triplicate and stopped by transferring reaction tubes into an ice-cold water bath. Reaction mixes were then spotted onto DE81 ion-exchange paper (pre-treated with 0.5 M EDTA, pH 8.0 and then dried), air dried and the unreacted label washed away with 125 ml of 40 mM NaCl, 10 mM Tris–HCl, pH 8.0, four times, 20 min each wash. The filter was then exposed to a storage phosphor screen overnight and the screen scanned with a quantitative imager (Typhoon Trio Variable Mode Imager, GE Healthcare, UK). The measured counts were converted to concentrations by comparison with a standard curve derived from known amounts of the radiolabelled L-glutamate subsequently used as substrate in the assays. The enzyme activity data was analysed using the Matlab software package. Regression curves were fitted using the least squares routine.

[2] = target: PfDHFS–FPGS (FPGS activity) (Plasmodium falciparum, UniProt Q8IE69); test: biochemical; type: biochemical
Method: as §1

[3] = tested on: P. falciparum FCB strain; test: Metabolic labelling of parasite cultures with 3H-folinic acid and 3H-methotrexate, HPLC analysis; type: cell-based, Plasmodium falciparum; conditions: for conversion to polyglutamylated forms in parasite cultures: 3H label 0.5 μCi/ml, ring-stage culture, 20 h incubation, HPLC
Method: 0.5 μCi/ml of either ^3H-folinic acid or ^3H-methotrexate at the same specific activity was used to label parallel 50 ml synchronous cultures of P. falciparum FCB strain. Label was incubated with ring-stage (6–10 h) parasites, which were harvested at the late trophozoite stage 20 h later. The labelled products were extracted by the boiling method and analysed using HPLC on a C18 column eluted with an acetonitrile gradient as described.

[4] = tested on: P. falciparum cultures; test: Growth of P. falciparum cultures (dose–response); type: cell-based, Plasmodium falciparum
[5] = tested on: bacterial DHFS; conditions: cited from earlier work
[6] = tested on: bacterial and mammalian FPGS; conditions: read-out: Km with bacterial and mammalian FPGS; cited from earlier work
[7] = substrate: N[C@@H](CCC(=O)O)C(=O)O; test: DHFS assay of recombinant PfDHFS–FPGS ([14C]glutamate incorporation); type: biochemical; conditions: other: low co-substrate concentrations (ATP or glutamate ≤25 μM), Michaelis–Menten fit; 37.0 °C
Method: as §1

[8] = low substrate concentrations, 25 μM substrate, 25 μM ATP, 18 μM glutamate

Molecule: CN(Cc1cnc2nc(N)nc(N)c2n1)c1ccc(C(=O)N[C@@H](CCC(=O)O)C(=O)O)cc1 [MTX, methotrexate]
- inhibition of DHFS activity ([1]; MTX up to 1.0 mM, DHP 10 μM, ATP 5 mM, glutamate 275 μM): inhibited neither DHFS nor FPGS; also recorded: neither the DHFS nor FPGS activities showed any sensitivity
- processing as substrate for polyglutamylation by FPGS activity (words) [2]: negligibly processed; also recorded: not a substrate
- inhibition of FPGS activity ([2]; MTX up to 1.0 mM, THF 10 μM, ATP 5 mM, glutamate 275 μM): inhibited neither DHFS nor FPGS; also recorded: neither the DHFS nor FPGS activities showed any sensitivity
- conversion to polyglutamylated forms in parasite cultures [3]: no polyglutamylated versions of MTX could be detected; also recorded: No polyglutamylated forms of MTX could be detected
- accumulation (uptake and retention) in parasites ([3]; equal initial label concentrations, 20 h): somewhat higher levels than folinic acid; also recorded: exceeded that of folinic acid
- IC50 ([4]; Plasmodium falciparum, average for four different strains): ~0.04 µM
- effect on parasite growth at extremely low levels ([4]; around 1 nM): stimulatory effect on growth

Molecule: Nc1nc(=O)c2nc(CNc3ccc(C(=O)N[C@@H](CCC(=O)O)C(=O)O)cc3)cnc2[nH]1 [folic acid]
- processing as substrate for polyglutamylation by FPGS activity (words) [2]: very poor substrates; also recorded: very low level of activity
- processing as substrate for polyglutamylation by FPGS activity (words) ([2]; listed as folate): negligibly processed
- polyglutamylated forms of folate produced compared with that produced from THF [2, 8]: insignificant

Molecule: Nc1nc2c(c(=O)[nH]1)N=C(CNc1ccc(C(=O)N[C@@H](CCP(=O)(O)CC(CCC(=O)O)C(=O)O)C(=O)O)cc1)CN2 (stereo partly shown) [H2-2]
- Ki [1]: 1.69 µM
- IC50 [2]: 0.39 µM
- Ki [2]: 0.091 µM
- potency for FPGS activity over DHFS activity ([2]; from Ki values): ~20 fold

Molecule: Nc1ncnc2c1ncn2[C@@H]1O[C@H](COP(=O)(O)OP(=O)(O)OP(=O)(O)O)[C@@H](O)[C@H]1O [ATP]
- Km [1]: 22.8 µM

Molecule: Nc1nc2c(c(=O)[nH]1)N=C(CNc1ccc(C(=O)O)cc1)CN2 [DHP, 7,8-dihydropteroate]
- DHP concentration at which DHFS activity peaked ([1]; ATP 0.5 mM, glutamate up to ∼1 mM): 1 to 2 µM
- dissociation constant KA for the substrate binding (catalytic site) ([1]; best-fit model a (partial substrate inhibition, three substrates), ATP 6 μM to 5 mM, glutamate 25 μM to 1 mM, n = 15): 0.50 µM
- Kd ([1]; best-fit model a, ATP 6 μM to 5 mM, glutamate 25 μM to 1 mM, n = 15, read-out: dissociation constant KABCA for the substrate (DHP) inhibition (inhibitory site)): 1.25 µM
- DHP concentration above which substrate inhibition became significant ([1]; high ATP and glutamate): > 2 µM
- Km [1]: 0.88 µM
- Km [5]: 0.4 to 6 µM

Molecule: Nc1nc2c(c(=O)[nH]1)N=C(CNc1ccc(P(=O)(O)CC(CCC(=O)O)C(=O)O)cc1)CN2 (stereo not shown) [H2-1]
- IC50 [1]: 0.41 µM
- Ki [1]: 0.14 µM
- potency for DHFS activity over FPGS activity ([1]; from Ki values): about 5 fold
- Ki [2]: 0.63 µM

Molecule: 5,6,7,8-tetrahydrofolate [THF]
- processing as substrate for polyglutamylation by FPGS activity (words) [2]: efficiently converted to polyglutamylated forms
- Km [6]: 2 to 5 µM

Molecule: Nc1nc(=O)c2c([nH]1)NCC(CNc1ccc(C(=O)N[C@@H](CCC(=O)O)C(=O)O)cc1)N2C=O (mixture of isomers) [folinic acid]
- conversion to polyglutamylated forms in parasite cultures [3]: almost complete

Molecule: Nc1nc(=O)c2c([nH]1)NCC(CNc1ccc(C(=O)N[C@@H](CCC(=O)O)C(=O)O)cc1)=N2 [DHF, 7,8-dihydrofolate]
- processing as substrate for polyglutamylation by FPGS activity (words) [2]: very poor substrates
- polyglutamylated forms of folate produced compared with that produced from THF ([2]; high substrate concentrations, 100 μM substrate, 2 mM ATP, 200 μM glutamate): 12%
- processing as substrate for polyglutamylation by FPGS activity (words) ([2]; listed as dihydrofolate): negligibly processed
- polyglutamylated forms of folate produced compared with that produced from THF [2, 8]: 21%

Molecule: Nc1nc2ncc(CNc3ccc(P(=O)(O)CC(CCC(=O)O)C(=O)O)cc3)nc2c(=O)[nH]1 (stereo not shown) [compound 1, 2-[[[4-[N-[(2-amino-3,4-dihydro-4-oxo-6-pteridinyl)methyl]amino]phenyl](hydroxy)phosphinoyl]methyl]pentane-1,5-dioic acid]
- strong inhibition of DHFS activity by the oxidised form ([1]; oxidised (unreduced) form): not its oxidised form

B1: PfDHFS–FPGS (DHFS activity) (Plasmodium falciparum 3D7) (protein)
chain: MEKNQNDKSNKNDIIHMNDKSGNYDKNNINNFIDKNDEHDMSDILHKINNEEKKYEEIKSYSECLELLYKTHALKLGLDNPKKLNESFGHPCDKYKTIHIAGTNGKGSVCYKIYTCLKIKKFKVGLFSSPHIFSLRERIIVNDEPISEKELIHLVNEVLNKAKKLYINPSFFEIITLVAFLHFLNKKVDYAIIETGIGGRLDATNILTKPEVIVITSIGYDHLNILGDNLPIICNEKIGIFKKDANVVIGPSVAIYKNVFDKAKELNCTIHTVVPEPRGERYNEENSRIALRTLEILNISIDYFLKSIIPIKPPLRIQYLATEQIQHIKKKFSPDNLEHNVQYPLAVILDVGHNETAIDRLCTDINYFHKGQNIRICISITKPRNLSVFHPFIAQFGDTLKDIFYLPSLNERTYDFEEIVEMLNNEEEIKNEIKELILSSSKKVGKWLAHEKQGNINEEDALKLYKRGCIPLIIKNAFLECCKDNSILLVCGTFFVFDEVLNVFDIHSDMQDTIFMNEPSLV
- Km [7]: 5.97 µM
